The experiment addresses T1, recombinant human SAE enzyme (Homo sapiens, UniProt Q9UBT2).
T1 sequence (Q9UBT2 1-640): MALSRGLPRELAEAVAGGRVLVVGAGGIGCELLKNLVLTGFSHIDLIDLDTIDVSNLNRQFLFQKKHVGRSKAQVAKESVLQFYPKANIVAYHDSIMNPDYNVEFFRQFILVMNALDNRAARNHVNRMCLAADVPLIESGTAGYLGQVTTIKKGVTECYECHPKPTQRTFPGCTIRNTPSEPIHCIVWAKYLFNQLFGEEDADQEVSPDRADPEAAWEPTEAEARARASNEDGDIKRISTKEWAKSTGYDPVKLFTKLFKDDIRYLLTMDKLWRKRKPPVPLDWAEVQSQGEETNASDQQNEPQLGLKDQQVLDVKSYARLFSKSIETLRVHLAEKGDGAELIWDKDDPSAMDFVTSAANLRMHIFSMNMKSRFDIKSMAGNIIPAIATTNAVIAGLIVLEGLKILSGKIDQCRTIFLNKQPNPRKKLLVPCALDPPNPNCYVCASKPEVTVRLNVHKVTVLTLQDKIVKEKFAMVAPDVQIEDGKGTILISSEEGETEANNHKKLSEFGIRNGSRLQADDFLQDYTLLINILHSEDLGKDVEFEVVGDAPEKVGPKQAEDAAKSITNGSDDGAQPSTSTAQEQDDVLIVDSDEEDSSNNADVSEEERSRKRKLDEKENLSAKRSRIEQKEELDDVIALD
T1 sequence (Q9UBE0 1-346 partner): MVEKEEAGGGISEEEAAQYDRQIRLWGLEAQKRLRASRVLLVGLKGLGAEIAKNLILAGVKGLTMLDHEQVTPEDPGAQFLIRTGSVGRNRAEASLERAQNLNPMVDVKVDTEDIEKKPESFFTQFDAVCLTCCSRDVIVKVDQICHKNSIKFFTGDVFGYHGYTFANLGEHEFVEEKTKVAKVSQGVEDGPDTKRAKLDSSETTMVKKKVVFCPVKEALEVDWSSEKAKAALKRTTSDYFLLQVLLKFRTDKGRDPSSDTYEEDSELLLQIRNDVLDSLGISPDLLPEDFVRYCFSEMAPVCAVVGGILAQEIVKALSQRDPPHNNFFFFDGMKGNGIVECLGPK
The experiment in a line: SAE HTRF Enzyme Assay. Format: biochemical. The following applies: for IC50: class symbols A-C; for inhibition at 0.111 µM: compound concentration 0.111 μM, read-out: Percent Inhibition. The gist of the method: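 Measured as FRET after a 2 h antibody step: SAE (0.11 nM) thioester transfer of Sumo-Flag to Ubc9-GST, 0.5 μM ATP, 24° C for 105 min, quenched with 20 mM EDTA. Output is IC50 or percent inhibition at a single concentration.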

These results are taken from US9695154B2, “Heteroaryl inhibitors of sumo activating enzyme” (MILLENNIUM PHARMACEUTICALS, INC., priority 2013, dated 2017).

Bounds are passed on as bounds.

Take `NS(=O)(=O)OC[C@H]1C[C@@H](Nc2ncncc2C(=O)c2ccn(Cc3cc(C(F)(F)F)ccc3Cl)n2)[C@H](O)[C@@H]1O` [Compound I-268, [(1R,2R,3S,4R)-4-{[5-({1-[2-chloro-5-(trifluoromethyl)benzyl]-1H-pyrazol-3-yl}carbonyl)pyrimidin-4-yl]amino}-2,3-dihydroxycyclopentyl]methyl sulfamate]: the concentration for half-maximal inhibition (IC50) is < 10 nM and the inhibition at 0.111 µM was 99%.
In the case of `NS(=O)(=O)OC[C@H]1C[C@@H](Nc2ncncc2C(=O)c2ccn(Cc3cc(F)cc(F)c3)n2)[C@H](O)[C@@H]1O` [Compound I-269, {(1R,2R,3S,4R)-4-[(5-{[1-(3,5-difluorobenzyl)-1H-pyrazol-3-yl]carbonyl}pyrimidin-4-yl)amino]-2,3-dihydroxycyclopentyl}methyl sulfamate], the concentration for half-maximal inhibition (IC50) is < 10 nM and the inhibition at 0.111 µM was 96%.
For `NS(=O)(=O)OC[C@H]1C[C@@H](Nc2ncncc2C(=O)c2ccn(Cc3cccc(C4(O)COC4)c3)n2)C[C@@H]1O` [Compound I-270, [(1R,2S,4R)-2-hydroxy-4-{[5-{{1-[3-(3-hydroxyoxetan-3-yl)benzyl]-1H-pyrazol-3-yl}carbonyl)pyrimidin-4-yl]amino}cyclopentyl]methyl sulfamate], in that order: 10 to 100 nM and 87%.
Taken in the same sequence, the figures for `NS(=O)(=O)OC[C@H]1C[C@@H](Nc2ncncc2C(=O)c2ccn(Cc3cccc(OC(F)(F)F)c3)c2)C[C@@H]1O` [Compound I-271, [(1R,2S,4R)-2-hydroxy-4-{[5-({1-[3-(trifluoromethoxy)benzyl]-1H-pyrrol-3-yl}carbonyl)pyrimidin-4-yl]amino}cyclopentyl]methyl sulfamate] were < 10 nM and 97%.
Taken in the same sequence, the figures for `NS(=O)(=O)OC[C@H]1C[C@@H](Nc2ncncc2C(=O)c2cc(Br)n(Cc3cccc(Br)c3)c2)[C@@H](F)[C@@H]1O` [Compound I-272, {(1R,2R,3R,4R)-4-[(5-{[5-bromo-1-(3-bromobenzyl)-1H-pyrrol-3-yl]carbonyl}pyrimidin-4-yl)amino]-3-fluoro-2-hydroxycyclopentyl}methyl sulfamate] were < 10 nM and 99%.
On to `NS(=O)(=O)OC[C@H]1C[C@@H](Nc2ncncc2C(=O)c2ccn(Cc3ccc(F)c4ccccc34)n2)[C@H](O)[C@@H]1O` [Compound I-273, [(1R,2R,3S,4R)-4-{[5-({1-[(4-fluoro-1-naphthyl)methyl]-1H-pyrazol-3-yl}carbonyl)pyrimidin-4-yl]amino}-2,3-dihydroxycyclopentyl]methyl sulfamate], for which the IC50 was < 10 nM and the inhibition at 0.111 µM came out at 98%.
Taken in the same sequence, the figures for `NS(=O)(=O)OC[C@H]1C[C@@H](Nc2ncncc2C(=O)c2ccn(Cc3ccc(C(F)(F)F)o3)c2)C[C@@H]1O` [Compound I-274, [(1R,2S,4R)-2-hydroxy-4-({5-[(1-{[5-(trifluoromethyl)-2-furyl]methyl}-1H-pyrrol-3-yl)carbonyl]pyrimidin-4-yl}amino)cyclopentyl]methyl sulfamate] were < 10 nM and 97%.
For `NS(=O)(=O)OC[C@H]1C[C@@H](Nc2ncncc2C(=O)c2ccn(CC#CC3(O)COC3)n2)C[C@@H]1O` [Compound I-275, [(1R,2S,4R)-2-hydroxy-4-{[5-({1-[3-(3-hydroxyoxetan-3-yl)prop-2-yn-1-yl]-1H-pyrazol-3-yl}carbonyl)pyrimidin-4-yl]amino}cyclopentyl]methyl sulfamate], the IC50 lay within 100 to 1000 nM and the inhibition at 0.111 µM amounted to 18%.
For the compound `NS(=O)(=O)OC[C@H]1C[C@@H](Nc2ncncc2C(=O)c2ccn(Cc3ccc(OC(F)(F)F)cc3)n2)C[C@@H]1O` [Compound I-276, [(1R,2S,4R)-2-hydroxy-4-{[5-({1-[4-(trifluoromethoxy)benzyl]-1H-pyrazol-3-yl}carbonyl)pyrimidin-4-yl]amino}cyclopentyl]methyl sulfamate], the IC50 is 10 to 100 nM and the inhibition at 0.111 µM came out at 82%.
For `Cc1ccc(Cn2ccc(C(=O)c3cncnc3N[C@@H]3C[C@H](COS(N)(=O)=O)[C@@H](O)[C@@H]3F)c2)o1` [Compound I-277, [(1R,2R,3R,4R)-3-fluoro-2-hydroxy-4-{[5-({1-[(5-methyl-2-furyl)methyl]-1H-pyrrol-3-yl}carbonyl)pyrimidin-4-yl]amino}cyclopentyl]methyl sulfamate], in that order: < 10 nM and 99%.
Take `NS(=O)(=O)OC[C@H]1C[C@@H](Nc2ncncc2C(=O)c2ccn(Cc3cccc(-c4ccccc4)c3)n2)[C@H](O)[C@@H]1O` [Compound I-278, {(1R,2R,3S,4R)-4-[(5-{[1-(biphenyl-3-ylmethyl)-1H-pyrazol-3-yl]carbonyl}pyrimidin-4-yl)amino]-2,3-dihydroxycyclopentyl}methyl sulfamate]: the IC50 is < 10 nM and the inhibition at 0.111 µM was 97%.
Take `NS(=O)(=O)OC[C@H]1C[C@@H](Nc2ncncc2C(=O)c2ccn(Cc3ccc(F)c(Br)c3)c2)C[C@@H]1O` [Compound I-279, {(1R,2S,4R)-4-[(5-{[1-(3-bromo-4-fluorobenzyl)-1H-pyrrol-3-yl]carbonyl}pyrimidin-4-yl)amino]-2-hydroxycyclopentyl}methyl sulfamate]: the IC50 was < 10 nM and the inhibition at 0.111 µM came out at 98%.
Taken in the same sequence, the figures for `NS(=O)(=O)OC[C@H]1C[C@@H](Nc2ncncc2C(=O)c2ccn(Cc3ccc(Cl)s3)n2)C[C@@H]1O` [Compound I-280, [(1R,2S,4R)-4-{[5-({1-[(5-chloro-2-thienyl)methyl]-1H-pyrazol-3-yl}carbonyl)pyrimidin-4-yl]amino}-2-hydroxycyclopentyl]methyl sulfamate] were < 10 nM and 99%.
For `CSCn1ccc(C(=O)c2cncnc2N[C@@H]2C[C@H](COS(N)(=O)=O)[C@@H](O)C2)n1` [Compound I-281, [(1R,2S,4R)-2-hydroxy-4-{[5-({1-[(methylsulfanyl)methyl]-1H-pyrazol-3-yl}carbonyl)pyrimidin-4-yl]amino}cyclopentyl]methyl sulfamate], in that order: 100 to 1000 nM and 25%.
Taken in the same sequence, the figures for `NS(=O)(=O)OC[C@H]1C[C@@H](Nc2ncncc2C(=O)c2ccn(Cc3cccc(Br)c3F)n2)C[C@@H]1O` [Compound I-282, {(1R,2S,4R)-4-[(5-{[1-(3-bromo-2-fluorobenzyl)-1H-pyrazol-3-yl]carbonyl}pyrimidin-4-yl)amino]-2-hydroxycyclopentyl}methyl sulfamate] were < 10 nM and 100%.
On to `NS(=O)(=O)OC[C@H]1C[C@@H](Nc2ncncc2C(=O)c2ccn(CC(=O)c3cccc(Cl)c3)n2)[C@H](O)[C@@H]1O` [Compound I-283, [(1R,2R,3S,4R)-4-{[5-({1-[2-(3-chlorophenyl)-2-oxoethyl]-1H-pyrazol-3-yl}carbonyl)pyrimidin-4-yl]amino}-2,3-dihydroxyoyclopentyl]methyl sulfamate], for which the IC50 is < 10 nM and the inhibition at 0.111 µM worked out at 97%.
For the compound `NS(=O)(=O)OC[C@H]1C[C@@H](Nc2ncncc2C(=O)c2ccn(Cc3cccc(Br)n3)n2)[C@H](O)[C@@H]1O` [Compound I-284, [(1R,2R,3S,4R)-4-{[5-({1-[(6-bromopyridin-2-yl)methyl]-1H-pyrazol-3-yl}carbonyl)pyrimidin-4-yl]amino}-2,3-dihydroxycyclopentyl]methyl sulfamate], the IC50 is < 10 nM and the inhibition at 0.111 µM was determined as 100%.
Taken in the same sequence, the figures for `NS(=O)(=O)OC[C@H]1C[C@@H](Nc2ncncc2C(=O)c2ccn(Cc3csc4ccc(Cl)cc34)n2)[C@H](O)[C@@H]1O` [Compound I-285, [(1R,2R,3S,4R)-4-{[5-({1-[(5-chloro-1-benzothiophen-3-yl)methyl]-1H-pyrazol-3-yl}carbonyl)pyrimidin-4-yl]amino}-2,3-dihydroxycyclopentyl]methyl sulfamate] were < 10 nM and 99%.
Taken in the same sequence, the figures for `NS(=O)(=O)OC[C@H]1C[C@@H](Nc2ncncc2C(=O)c2ccn(Cc3c(F)cc(F)cc3F)n2)C[C@@H]1O` [Compound I-286, {(1R,2S,4R)-2-hydroxy-4-[(5-{[1-(2,4,6-trifluorobenzyl)-1H-pyrazol-3-yl]carbonyl}pyrimidin-4-yl)amino]cyclopentyl}methyl sulfamate] were < 10 nM and 93%.
